Data as given in patent US9731052B2, “Methods for stepwise deposition of silk fibroin coatings” (TRUSTEES OF TUFTS COLLEGE, priority 2005, dated 2017).

Assays:
[1] = Real-time adsorption of model compounds monitored by RQCM; assay type: physicochemical; details: in situ RQCM; for adsorption (saturation) that took place within the first 2 min: silk pre-coated gold electrode
Text: (§1) This process was repeated according to the designated architectures in which the outmost layer was always silk layer. In this work, two different loading modalities were used in the release study for each compound, each with two different rinsing methods. UV-Vis absorbance spectra and a research quartz crystal microbalance (RQCM) were used for verifying the deposition.
The real-time adsorption of model compounds on silk pre-coated gold electrode surface was monitored using research quartz crystal microbalance (RQCM).

[2] = Compound release from multilayer silk coatings on glass slides in PBS; assay type: physicochemical; details: room temperature
Text: as §1
The compound release from the multilayer coatings on glass microscope slides (25×75 mm on both sides) was investigated by incubating the slides in 5 ml PBS buffer solutions at room temperature with gentle shaking (60 rpm). At preset time intervals, 2 ml supernatant was sampled and 2 ml fresh PBS solution was then added to replenish the sample that was removed in order to maintain a constant volume. The supernatant was analyzed for the amount of released model compound using UV-vis spectroscopy for optical densities at a specific wavelength for each compound (562 nm for Rhodamine B, 609 nm for Even Blue, and 358 nm for Azoalbumin) and compared to a standard curve generated for each compound. The amount of released compound in each sample was summed with the amounts at each previous time point and divided by the total amount to obtain cumulative release value. Experiments were run in triplicates (n=3). Data in the graphs represent the average±standard deviation.

Row | adsorption (saturation) that took place within the first 2 min [1] [%] | initial burst, compared with Rhodamine B [2] | adsorption on silk coating, compared with Even Blue [1] | Compound
1 | ~92 | no noticeable difference | – | Cc1cc(-c2ccc(/N=N/c3ccc4c(S(=O)(=O)[O-])cc(S(=O)(=O)[O-])c(N)c4c3O)c(C)c2)ccc1/N=N/c1ccc2c(S(=O)(=O)[O-])cc(S(=O)(=O)[O-])c(N)c2c1O.[Na+].[Na+].[Na+].[Na+] [Even Blue]
2 | ~92 | – | higher adsorption | CCN(CC)c1ccc2c(-c3ccccc3C(=O)O)c3ccc(=[N+](CC)CC)cc-3oc2c1 [Rhodamine B]

Row | Compound | adsorption (saturation) that took place within the first 2 min [1] [%] | initial burst, compared with Rhodamine B [2] | adsorption on silk coating, compared with Even Blue [1]
3 | Azoalbumin: model molecule representing therapeutically relevant proteins | ~82 | – | –
